Reference: patent US7691572B2, “Method and kit for detecting resistance to antiviral drugs” (priority 1998, dated 2010)
“And” between values parts separate entries of the source, which are not always exact repeats. Identical values can stand only once. Like-named read-outs stand apart in the source and are kept apart here.

How the values were obtained:
HIV-1 RT [1] = assay: Amp-RT assay, AZT-TP and other NRTI-TPs, reference viruses; assay type: biochemical
HIV-1 RT [2] = system: HIV-1 RT
Experimental: (§1) For culture supernatant, 10 μl were used directly in the Amp-RT assay. For plasma testing, a volume of 100 μl was clarified by centrifugation at 10,000 g for five minutes and then ultracentrifuged at a fixed angle at 99,000 g for 1 hour at 4° C. The viral pellet was resuspended in 100 μl of RT buffer (50 mM Tris-HCl, 50 mM KCl, 10 mM MgCl2). Ten microliter aliquots of virus pellets were applied to an RT buffer containing 10 ng of EMCV RNA template, 10 units of RNasin, 0.6% NP-40, 100 ng of the 5′-biotin-labeled EMCR2 antisense primer, 1 nM EGTA, 2 mM dithiothreitol, 50 mM Tris-HCl, 50 mM KCl, 10 mM MgCl2, and 400 uM of each dNTP. Reactions were incubated at 37° C. for 2 hours and then heated at 95° C. for five minutes to destroy RT activity. […] The conditions for PCR were 35 cycles at 95° C. for one minute, 55° C. for one minute, and 72° C. for one minute.
(§2) For quantitation of RT levels, a standard curve was generated by using known RT units from a reference HIV-1 stock (Virology Quality Assurance Laboratory, Rush-Presbyterian-St. Luke's Medical Center, Chicago, Ill.). […] All samples were tested within the linear range of the Amp-RT assay (from 10^−6 to 10^−10 units of RT activity). Samples which had levels of RT activity above the linear range of the assay, were further diluted in RT buffer and retested again. The minimum detectable level of HIV-1 RT activity by the Amp-RT in plasma is 10^−10 units, the equivalent of 1 HIV-1 particle of the reference virus used for quantitation. The results of Amp-RT signals were expressed as units of RT activity per milliliter of plasma and reflect the average of duplicate results.

HIV-1 RT [3] = molecular target: HIV-1 RT (Human immunodeficiency virus type 1 group M subtype B, UniProt P04585, M628L/L661V/V693A/T802Y); settings: 50 μM; HIV-1RTMDR1/MT-2 (74V/41L/106A/215Y)
Experimental: as §1, §2

HIV-1 isolates = settings: read-out: IC50 Culture, cited from earlier work
plasma HIV-1 RT = plasma HIV-1 RT (Human immunodeficiency virus type 1, UniProt P04585); settings: 50 μM nevirapine
Experimental: as §1, §2

[4] = MNR HIV-1SUM12 (F77L, F116Y, Q151M)
[5] = MNR HIV-1SUM13 (A62V, V75I, F77L, F116Y, Q151M)

Cc1cn([C@H]2C=C[C@@H](COP(=O)(O)OP(=O)(O)OP(=O)(O)O)O2)c(=O)[nH]c1=O [d4T-TP]
IC50 (HIV-1 RT [1]; MNR HIV-1SUM8 (Q151M)): 320 nM | fold resistance (IC50) as compared to the mean IC values of WT HIV-1 (HIV-1 RT [1]; MNR HIV-1SUM8 (Q151M)): (9.1) fold | IC50 (HIV-1 RT [1]; [4]): 370 nM | fold resistance (IC50) as compared to the mean IC values of WT HIV-1 (HIV-1 RT [1]; [4]): (10.6) fold | IC50 (HIV-1 RT [1]; [5]): 370 nM | fold resistance (IC50) as compared to the mean IC values of WT HIV-1 (HIV-1 RT [1]; [5]): (10.6) fold | IC50 (HIV-1 RT [1]; WT HIV-1LAI): 15 nM | IC50 (HIV-1 RT [1]; WT HIV-1SUM9): 55 nM

Nc1ncnc2c1ncn2[C@H]1CC[C@@H](COP(=O)(O)OP(=O)(O)OP(=O)(O)O)O1 [ddA-TP]
IC50 (HIV-1 RT [1]; MNR HIV-1SUM8 (Q151M)): 1200 nM | fold resistance (IC50) as compared to the mean IC values of WT HIV-1 (HIV-1 RT [1]; MNR HIV-1SUM8 (Q151M)): (6.5) fold | IC50 (HIV-1 RT [1]; [4]): 1100 nM | fold resistance (IC50) as compared to the mean IC values of WT HIV-1 (HIV-1 RT [1]; [4]): (5.9) fold | IC50 (HIV-1 RT [1]; [5]): 6000 nM | fold resistance (IC50) as compared to the mean IC values of WT HIV-1 (HIV-1 RT [1]; [5]): (32.4) fold | IC50 (HIV-1 RT [1]; WT HIV-1SUM9): 270 nM | IC50 (HIV-1 RT [1]; WT HIV-1xxBRUpitt): 100 nM

Nc1ccn([C@H]2CC[C@@H](COP(=O)(O)OP(=O)(O)OP(=O)(O)O)O2)c(=O)n1 [ddC-TP, ddC-triphosphate]
IC50 (HIV-1 RT [1]; MNR HIV-1SUM8 (Q151M)): 1800 nM | fold resistance (IC50) as compared to the mean IC values of WT HIV-1 (HIV-1 RT [1]; MNR HIV-1SUM8 (Q151M)): (3.6) fold | IC50 (HIV-1 RT [1]; [4]): 6000 nM | fold resistance (IC50) as compared to the mean IC values of WT HIV-1 (HIV-1 RT [1]; [4]): (12) fold | IC50 (HIV-1 RT [1]; [5]): 7500 nM | fold resistance (IC50) as compared to the mean IC values of WT HIV-1 (HIV-1 RT [1]; [5]): (15) fold | IC50 (HIV-1 RT [1]; WT HIV-1LAI): 500 nM | IC50 (HIV-1 RT [1]; WT HIV-1SUM9): 500 nM

Cc1ccnc2c1NC(=O)c1cccnc1N2C1CC1 [nevirapine]
inhibition of RT (HIV-1 RT [2]; 50 μM nevirapine, isolate W786-6, 8.3×10^−9 units of RT activity): no significant inhibition | Inhibition of RT. (%) (HIV-1 RT [2]; 50 μM nevirapine, isolate W786-6, input 5.6 × 10^−8 units): 0% | Inhibition of RT. (%) (HIV-1 RT [2]; 50 μM nevirapine, isolate X267-1, input 6.9 × 10^−9 units): complete inhibition and 100% | Inhibition of RT. (%) (HIV-1 RT [2]; 50 μM nevirapine, isolate X267-1, input 7.1 × 10^−7 units): 98.6% | Inhibition of RT. (%) (HIV-1 RT [2]; 50 μM nevirapine, isolate X267-1, input 7.1 × 10^−7 units, listed as Nevirapine): 98.7% | Inhibition of RT. (%) (HIV-1 RT [2]; 50 μM nevirapine, isolate X267-1, input 7.2 × 10^−8 units): complete inhibition and 100% | Inhibition of RT. (%) (HIV-1 RT [2]; 50 μM nevirapine, isolate X403-4, input 4.4 × 10^−7 units): 16% | inhibition of RT (HIV-1 RT [2]; 50 μM nevirapine, isolates X403-4 and W786-6, high or low input of RT): no significant inhibition | Inhibition of RT. (%) (HIV-1 RT [2]; 50 μM nevirapine, line under isolate X403-4, input 4.1 × 10^−7 units): 0% | Inhibition of RT. (%) (HIV-1 RT [2]; 50 μM nevirapine, line under isolate X403-4, input 8.2 × 10^−9 units): 0% | RT inhibition (HIV-1 RT [2]; 50 μM nevirapine, mixture 10% resistant (W786-6) and 90% sensitive (X267-1) viruses): 94% | RT inhibition (HIV-1 RT [2]; 50 μM nevirapine, mixture containing 25% resistant viruses): 80% | RT inhibition (HIV-1 RT [2]; 50 μM nevirapine, mixture containing 75% resistant viruses): 29% | inhibition of RT activity (HIV-1 RT [2]; 50 μM nevirapine, resistant isolates): little or no inhibition | RT inhibition (HIV-1 RT [2]; 50 μM nevirapine, sensitive isolate X267-1 alone): > 99% | Inhibition of RT by Nevirapine (HIV-1 RT [2]; 50 μM, HIV-1RTMC/MT-2 (67N/70R/215F/219Q), AZT-resistant): 91.8% | Inhibition of RT by Nevirapine (HIV-1 RT [2]; 50 μM, HIV-1RTMDR1/MT-2 (74V/41L/106A/215Y)): 43% | Inhibition of RT by Nevirapine (HIV-1 RT [2]; 50 μM, L6KL5 (103N/75I/77L/116Y/151M)): 7% | Inhibition of RT by Nevirapine (HIV-1 RT [2]; 50 μM, L6KL5 (103N/75I/77L/116Y/151M), listed as Nevirapine): 0% | Inhibition of RT by Nevirapine (HIV-1 RT [2]; 50 μM, M184V/Y181CEU (184V/181C)): 0% | Inhibition of RT by Nevirapine (HIV-1 RT [2]; 50 μM, M184Vpitt (184V), 3TC-resistant): 98.8% | Inhibition of RT by Nevirapine (HIV-1 RT [2]; 50 μM, N119 (181C)): 0% | Inhibition of RT by Nevirapine (HIV-1 RT [2]; 50 μM, N119 (181C), listed as Nevirapine): 7% | susceptibility to nevirapine (HIV-1 RT [2]; 50 μM, viruses containing mutations associated with AZT or 3TC resistance): susceptible | Units of RT activity With 50 μM Nevirapine (HIV-1 RT [2]; isolate W786-6, 5.6 × 10^−8 without nevirapine): 7.7 × 10^−8 Units of RT activity | Units of RT activity With 50 μM Nevirapine (HIV-1 RT [2]; isolate X267-1, 7.1 × 10^−7 without nevirapine): 9.1 × 10^−9 Units of RT activity | Units of RT activity With 50 μM Nevirapine (HIV-1 RT [2]; isolate X403-4, 4.4 × 10^−7 without nevirapine): 3.7 × 10^−7 Units of RT activity | Units of RT activity With 50 μM Nevirapine (HIV-1 RT [2]; line under isolate X403-4, 4.1 × 10^−7 without nevirapine): 5.0 × 10^−7 Units of RT activity | Units of RT activity With 50 μM Nevirapine (HIV-1 RT [2]; line under isolate X403-4, 8.2 × 10^−9 without nevirapine): 8.4 × 10^−9 Units of RT activity | Inhibition of RT by Nevirapine (HIV-1 RT [3]): partially inhibited | IC50 (HIV-1 isolates; isolate S469-2/M3 (Y188L)): 100000 nM | IC50 (HIV-1 isolates; isolate X165-6 (no mutations)): 70 nM | IC50 (HIV-1 isolates; isolate X267-1 (no mutations)): 40 nM | RT inhibition (plasma HIV-1 RT; patient N06, after 7 days of treatment): 100% | RT inhibition (plasma HIV-1 RT; patient N07, day 7 of treatment): 24% | RT inhibition (plasma HIV-1 RT; patient N12, after 7 days of treatment): 94% | RT inhibition (plasma HIV-1 RT; patient N12, day 14 of treatment): 32% | mean RT inhibition (plasma HIV-1 RT; samples after more than two weeks of treatment): 13.82% | mean RT inhibition (plasma HIV-1 RT; samples collected before therapy (n=7)): 99.3% | mean RT inhibition (plasma HIV-1 RT; samples of the first six days of treatment (n=14)): 98.2%
